Test results reported in publication PMC9012168 (BioProcess international, 2018).
Starred links: 1 amine or outer side, 2 acyl side, 3 side chain; linkers in the order of their positions; H or OH if unused. Positions of bridges follow the written chain, without caps; N, C: chain ends. Non-standard residues stand in square brackets, D forms with d. Residues, ends and D or L forms follow the SMILES beside them. Chains are numbered I, II in the order given. Actinocin(9to1) = Cc1c2oc3c(C)ccc(C(=O)[*:1])c3nc-2c(C(=O)[*:2])c(N)c1=O; NMeV = CN[C@H](C(=O)O)C(C)C; Sar = CNCC(=O)O

Assay: in vitro
Format: cell-based
Settings: human

Compound: Cc1c2oc3c(C)ccc(C(=O)N[C@@H]4C(=O)N[C@H](C(C)C)C(=O)N5CCC[C@H]5C(=O)N(C)CC(=O)N(C)[C@@H](C(C)C)C(=O)O[C@@H]4C)c3nc-2c(C(=O)N[C@@H]2C(=O)N[C@H](C(C)C)C(=O)N3CCC[C@H]3C(=O)N(C)CC(=O)N(C)[C@@H](C(C)C)C(=O)O[C@@H]2C)c(N)c1=O [dactinomycin] (I: T[dV]P[Sar][NMeV] / II: T[dV]P[Sar][NMeV]; ester I:1-I:C, II:1-II:C; linker I:N-II:N via Actinocin(9to1))
- IC50: 8.5 nM
